Measurements: patent US8394788B2, “Phenylsulfoxyoxazole compound inhibitors of urea transporters” (The Regents of the University of California, priority 2006, dated 2013)

Legend:
mouse UT-B = biological target: T1, mouse UT-B (Mus musculus, UniProt Q8VHL0); experiment: Stopped-flow light scattering, mouse RBCs (N-methylurea gradient); type: cell-based
T1 construct: the indicator cells are red blood cells that endogenously express the UT-B urea transporter; endogenous in cells; host or cells: mouse red blood cells (CD1 background; wild-type for A4, AQP1-null for A10)
T1 sequence (Q8VHL0 1-384): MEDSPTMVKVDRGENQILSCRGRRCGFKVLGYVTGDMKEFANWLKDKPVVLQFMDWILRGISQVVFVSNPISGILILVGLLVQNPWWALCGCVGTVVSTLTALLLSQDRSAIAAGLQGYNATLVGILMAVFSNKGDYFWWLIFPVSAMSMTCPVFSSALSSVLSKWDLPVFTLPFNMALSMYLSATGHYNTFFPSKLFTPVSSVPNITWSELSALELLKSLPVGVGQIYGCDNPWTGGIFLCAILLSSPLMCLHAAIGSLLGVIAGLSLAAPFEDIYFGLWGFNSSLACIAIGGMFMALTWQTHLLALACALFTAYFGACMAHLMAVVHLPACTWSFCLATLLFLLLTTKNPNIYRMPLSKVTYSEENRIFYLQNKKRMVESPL
Procedure: (§1) RBC urea and water permeabilities were assayed by stopped-flow light scattering using a Hi-Tech Sf-51 instrument (Wiltshire, UK). For measurement of urea permeability, dilutions of whole blood (human or mouse; see Example 1) in PBS (hematocrit: approximately 0.5%) were incubated with test compounds for 5 min and then subjected to a 250-mM inwardly directed gradient of urea. After an initial osmotic shrinking phase, the kinetics of increasing cell volume caused by urea influx were measured as the time-course of 90° scattered light intensity at 530 nm, with increasing cell volume resulting in reduced scattered light intensity. As a positive control, 0.7 mM phloretin was added to the RBC suspension prior to stopped-flow experiments. Measurements of water permeability were carried out similarly, with sucrose (cell-impermeant) used instead of urea to establish a 250-mM osmotic gradient. As a positive control, HgCl2 (0.3 mM) was added to the RBC suspension prior to stopped-flow measurements. Osmotic water permeability coefficients (Pf) were computed from light scattering data as described (van Hoek et al., J Biol. Chem. 267:18267-69 (1992)). […]

RBCs from wild-type mice = experiment: Osmotic water permeability, RBCs from wild-type mice (stopped-flow); type: cell-based, mouse; conditions: 10° C., 250-mM sucrose gradient
Procedure: (§2) RBC urea and water permeabilities were assayed by stopped-flow light scattering using a Hi-Tech Sf-51 instrument (Wiltshire, UK). For measurement of urea permeability, dilutions of whole blood (human or mouse; see Example 1) in PBS (hematocrit: approximately 0.5%) were incubated with test compounds for 5 min and then subjected to a 250-mM inwardly directed gradient of urea. After an initial osmotic shrinking phase, the kinetics of increasing cell volume caused by urea influx were measured as the time-course of 90° scattered light intensity at 530 nm, with increasing cell volume resulting in reduced scattered light intensity. As a positive control, 0.7 mM phloretin was added to the RBC suspension prior to stopped-flow experiments. Measurements of water permeability were carried out similarly, with sucrose (cell-impermeant) used instead of urea to establish a 250-mM osmotic gradient. As a positive control, HgCl2 (0.3 mM) was added to the RBC suspension prior to stopped-flow measurements. Osmotic water permeability coefficients (Pf) were computed from light scattering data as described (van Hoek et al., J Biol. Chem. 267:18267-69 (1992)).
This example describes chemical knock-out of UT-B by UT-B inhibitors in RBCs and the effect on UT-B-facilitated water transport. […] Osmotic water permeability was measured by stopped-flow light scattering in RBCs from wild-type and AQP1-null mice as shown in FIG. 8A. […] AQP1-null RBCs had greater than 5-fold reduced Pf compared to wild-type RBCs.

UT-B [1] = biological target: T2, UT-B (Mus musculus, UniProt Q8VHL0); experiment: Osmotic water permeability, AQP1-null mouse RBCs (UT-B-facilitated water transport); type: cell-based; conditions: 10° C., 250-mM sucrose gradient
T2 construct: the indicator cells are red blood cells that endogenously express the UT-B urea transporter; endogenous in cells; host or cells: mouse red blood cells (CD1 background; wild-type for A4, AQP1-null for A10)
T2 sequence (Q8VHL0 1-384): T1 sequence (Q8VHL0 1-384)
Procedure: as §1, with “measurements.” for “measurements. Osmotic water permeability coefficients (Pf) were computed from light scattering data as described (van Hoek et al., J Biol. Chem. 267:18267-69 (1992)).”
This example describes chemical knock-out of UT-B by UT-B inhibitors in RBCs and the effect on UT-B-facilitated water transport. […] Osmotic water permeability was measured by stopped-flow light scattering in RBCs from wild-type and AQP1-null mice as shown in FIG. 8A. […]

UT-B [2] = biological target: T3, UT-B (Homo sapiens, UniProt Q13336); experiment: Stopped-flow light scattering, urea permeability of human RBCs; type: cell-based; set-up: a red blood cell (i.e., erythrocyte), which endogenously expresses the urea transporter UT-B; endogenous in cells; host or cells: human red blood cells (whole blood, single donor); conditions: for inhibition of urea transport, inhibitor only in urea-containing solution (sidedness): external exposure at time of stopped-flow, 0.1 μM ureainh-101, 0.2 μM ureainh-302; for reversibility of inhibition after washing RBCs: washed after 10 min incubation
T3 sequence (Q13336 1-389): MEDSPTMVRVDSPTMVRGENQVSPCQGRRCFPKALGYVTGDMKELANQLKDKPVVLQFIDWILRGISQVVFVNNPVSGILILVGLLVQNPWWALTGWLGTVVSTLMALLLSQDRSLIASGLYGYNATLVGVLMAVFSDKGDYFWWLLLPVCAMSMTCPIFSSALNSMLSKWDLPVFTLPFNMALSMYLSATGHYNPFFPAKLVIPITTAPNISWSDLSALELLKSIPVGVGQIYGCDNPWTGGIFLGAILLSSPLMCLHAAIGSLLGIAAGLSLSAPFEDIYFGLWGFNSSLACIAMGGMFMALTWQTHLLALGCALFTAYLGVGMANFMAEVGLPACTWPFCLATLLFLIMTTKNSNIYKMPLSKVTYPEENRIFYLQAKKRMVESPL
Procedure: as §2
After repeating the 96-well plate RBC lysis assay to confirm compound activity (see Example 2), bona fide urea transport inhibition was determined by stopped-flow light scattering from the kinetics of urea influx (RBC swelling) in response to an inwardly directed urea gradient. Rapid mixing of an RBC suspension with a hyperosmolar solution containing excess 250 mM urea produced rapid cell shrinking due to osmotic water efflux, followed by cell swelling as urea (and water) influx occurred.
To determine EC50 values for urea transport inhibition directly, RBC urea transport was measured by stopped-flow light scattering using a non-saturating concentration of extracellular urea (to avoid possible competition effects). EC50 for inhibition of RBC urea transport was determined independently by comparing stopped-flow light scattering curves to a model of cell shrinking-swelling.
For stopped-flow experiments, a 100-mM gradient of urea (for human RBCs) or N-methylurea (for mouse RBCs) was used to minimize competition effects (apparent urea and N-methylurea affinities at 23° C. are approximately 200 and approximately 100 mM, respectively) (Mayrand et al., J Gen Physiol. 81:221-37 (1983)). N-methylurea, with greater than 2-fold slower RBC permeability than urea, was used in mouse studies to better resolve overlapping water and urea transport kinetics. Dose-response data were also collected for human RBCs using a high concentration of 1 M urea to distinguish between competitive vs. non-competitive inhibitor binding.
The two coupled differential equations describing water efflux and solute influx in response to externally added urea or methylurea were numerically integrated using the forward Euler method (Δt=0.01 s) to reproduce the biphasic changes in cell volume observed experimentally. Computations that were performed using the smaller time step (Δt=0.001 s) gave similar results, confirming the adequacy of the 0.01 s time step. Water flux, Jv (in cm^3/s), across erythrocyte membranes is represented by the following equation: Jv=−Pf·S·vw·[(Ie−Ic(i))+(Ue−Uc(i))]; solute flux, Js (in mol/s), is represented by the following equation: Ps·S·(Ue−Uc(i)). Permeability coefficients (Pf and Ps) are expressed in units of cm/s, cell surface area (S) in cm^2, extracellular (e) and cellular (c) concentrations of impermeant (I) and urea/methylurea (U) solute in mol/cm^3, and vw is […]. Initial conditions were Ie=Ic(0)=2.9×10^−4 mol/cm^3, Ue=10^−4 mol/cm^3, and Uc(0)=0. […]

NC(=O)CSc1oc(-c2ccccc2)nc1S(=O)(=O)c1ccc(Br)cc1 [ureainh-101, 2-(4-(4-bromophenylsulfonyl)-2-phenyloxazol-5-ylthio)acetamide] was tested, and the “inhibitory potencies against mouse UT-B” value (mouse UT-B) was “good inhibitory potencies”, the “effect on water transport in RBCs from wild-type mice” value (RBCs from wild-type mice) was “little effect” and the “effect on water permeability in AQP1-null RBCs” value (UT-B [1]) was “further inhibited water permeability”. For the same molecule, the inhibition at 0.1 µM (UT-B [2]; 10 min pre-incubation, 0.1 μM ureainh-101, 0.4 μM ureainh-302, read-out: transport inhibition after pre-incubation) was greater than 95%, the “inhibition of urea transport, inhibitor only in urea-containing solution (sidedness)” value (UT-B [2]) was “did not inhibit urea transport” and the “reversibility of inhibition after washing RBCs” value (UT-B [2]) was “fully reversible inhibition”.

With Cc1ccc(Nc2nnc(-c3ccc(C(N)=O)cc3)c3ccccc23)cc1 [ureainh-302] the “inhibitory potencies against mouse UT-B” value (mouse UT-B) was “good inhibitory potencies”, the “effect on water transport in RBCs from wild-type mice” value (RBCs from wild-type mice) was “little effect” and the “effect on water permeability in AQP1-null RBCs” value (UT-B [1]) was “further inhibited water permeability”. For the same molecule, the “inhibition of urea transport, inhibitor only in urea-containing solution (sidedness)” value (UT-B [2]) was “sizable effect”, the “concentration dependence of inhibition of urea permeability by externally added inhibitor” value (UT-B [2]; externally added, 0.05-0.2 μM) was “concentration-dependent” and the “reversibility of inhibition after washing RBCs” value (UT-B [2]) was “fully reversible inhibition”.
